This passage reports IC50 and JAK1/JAK2 selectivity results from US20260092070A1, “INHIBITORS OF CANINE JANUS KINASE AND USES THEREOF” (ANIMOL DISCOVERY, INC., priority 2023, published 2026).

The IC50 is the concentration at which inhibition is half-maximal.

The target in one assay is Human JAK-2 (Homo sapiens, UniProt O60674). The assay can be described thus: JAK enzymatic assay (Eurofins KinaseProfiler/IC50Profiler, radiometric), JAK-2. Format: biochemical. The following applies: human JAK-2 enzyme, 9 concentrations; read-out: JAK2 affinity (IC50) category.
Human JAK-2, sequence (O60674 whole entry): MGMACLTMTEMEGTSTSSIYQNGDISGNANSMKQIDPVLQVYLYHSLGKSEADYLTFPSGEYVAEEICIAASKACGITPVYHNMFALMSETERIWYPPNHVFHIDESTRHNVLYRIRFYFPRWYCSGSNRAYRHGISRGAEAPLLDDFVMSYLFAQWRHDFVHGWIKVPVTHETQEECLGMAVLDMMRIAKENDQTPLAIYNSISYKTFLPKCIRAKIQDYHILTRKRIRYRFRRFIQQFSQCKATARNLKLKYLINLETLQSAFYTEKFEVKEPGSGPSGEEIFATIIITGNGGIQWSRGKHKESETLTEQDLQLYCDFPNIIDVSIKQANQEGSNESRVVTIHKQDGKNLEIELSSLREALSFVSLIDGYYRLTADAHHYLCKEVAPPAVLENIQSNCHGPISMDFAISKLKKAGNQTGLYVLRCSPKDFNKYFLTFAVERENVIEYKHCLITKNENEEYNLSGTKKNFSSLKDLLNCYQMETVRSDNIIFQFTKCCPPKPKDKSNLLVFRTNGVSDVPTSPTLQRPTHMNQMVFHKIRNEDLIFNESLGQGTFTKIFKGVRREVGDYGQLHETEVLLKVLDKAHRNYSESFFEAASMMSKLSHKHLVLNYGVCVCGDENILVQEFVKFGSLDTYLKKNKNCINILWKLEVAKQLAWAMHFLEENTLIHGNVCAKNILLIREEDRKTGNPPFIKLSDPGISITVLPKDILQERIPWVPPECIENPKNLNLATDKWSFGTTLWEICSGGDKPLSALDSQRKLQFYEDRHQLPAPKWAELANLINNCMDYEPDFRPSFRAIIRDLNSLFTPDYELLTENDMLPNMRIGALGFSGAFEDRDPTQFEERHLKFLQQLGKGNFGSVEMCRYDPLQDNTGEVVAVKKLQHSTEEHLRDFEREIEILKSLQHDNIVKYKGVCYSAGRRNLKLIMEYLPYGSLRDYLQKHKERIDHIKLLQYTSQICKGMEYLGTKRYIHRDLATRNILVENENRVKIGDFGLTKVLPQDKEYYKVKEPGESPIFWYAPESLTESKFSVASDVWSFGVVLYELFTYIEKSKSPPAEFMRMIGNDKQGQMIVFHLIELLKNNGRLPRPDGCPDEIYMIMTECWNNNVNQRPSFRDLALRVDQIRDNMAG
The target in the next assay is T1, Human TYK-2 (Homo sapiens, UniProt P29597).
T1 construct: purchased Eurofins Discovery (KinaseProfiler / IC50Profiler service)
T1 sequence (P29597 whole entry): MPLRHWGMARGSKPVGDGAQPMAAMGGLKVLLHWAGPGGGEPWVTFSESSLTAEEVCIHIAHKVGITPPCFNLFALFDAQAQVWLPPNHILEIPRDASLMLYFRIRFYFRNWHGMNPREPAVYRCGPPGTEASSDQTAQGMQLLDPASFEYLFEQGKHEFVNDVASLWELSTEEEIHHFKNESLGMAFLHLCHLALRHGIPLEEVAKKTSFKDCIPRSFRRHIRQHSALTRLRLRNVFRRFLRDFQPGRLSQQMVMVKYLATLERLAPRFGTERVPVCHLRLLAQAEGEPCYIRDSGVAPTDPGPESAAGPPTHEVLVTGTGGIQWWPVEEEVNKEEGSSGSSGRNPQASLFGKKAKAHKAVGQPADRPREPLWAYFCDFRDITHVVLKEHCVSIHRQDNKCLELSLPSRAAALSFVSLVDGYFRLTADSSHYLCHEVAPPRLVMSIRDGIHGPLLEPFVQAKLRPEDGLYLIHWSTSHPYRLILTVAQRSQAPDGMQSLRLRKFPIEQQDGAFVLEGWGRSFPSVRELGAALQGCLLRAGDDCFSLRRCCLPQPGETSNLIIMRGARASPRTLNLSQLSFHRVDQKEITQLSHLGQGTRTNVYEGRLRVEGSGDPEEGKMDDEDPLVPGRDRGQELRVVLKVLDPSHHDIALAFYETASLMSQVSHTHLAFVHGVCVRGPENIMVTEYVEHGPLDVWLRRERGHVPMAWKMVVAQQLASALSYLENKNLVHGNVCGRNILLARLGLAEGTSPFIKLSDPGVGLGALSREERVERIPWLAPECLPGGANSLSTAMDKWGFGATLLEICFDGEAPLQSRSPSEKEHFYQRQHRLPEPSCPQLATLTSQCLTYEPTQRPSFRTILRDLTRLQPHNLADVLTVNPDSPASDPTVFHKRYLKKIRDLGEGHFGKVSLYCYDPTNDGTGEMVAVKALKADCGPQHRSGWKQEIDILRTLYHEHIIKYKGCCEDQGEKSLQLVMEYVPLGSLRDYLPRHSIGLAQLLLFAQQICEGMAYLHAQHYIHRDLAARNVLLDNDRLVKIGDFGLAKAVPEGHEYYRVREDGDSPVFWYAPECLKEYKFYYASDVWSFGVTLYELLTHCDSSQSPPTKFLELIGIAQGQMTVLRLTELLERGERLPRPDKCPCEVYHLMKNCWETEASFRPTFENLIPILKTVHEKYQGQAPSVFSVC
Kind of assay: JAK enzymatic assay (Eurofins KinaseProfiler/IC50Profiler, radiometric), TYK-2. The format is biochemical. The following applies: human TYK-2 enzyme, 9 concentrations; read-out: TYK2 affinity (IC50) category. The method, then:
Human TYK-2 (Uniprot ID: P29597) was incubated with 8 mM MOPS pH 7.0, 0.2 mM EDTA, 250 μM […]

In a further assay the target is T2, Human JAK-3 (Homo sapiens, UniProt P52333).
T2 construct: purchased Eurofins Discovery (KinaseProfiler / IC50Profiler service)
T2 sequence (P52333 1-1124): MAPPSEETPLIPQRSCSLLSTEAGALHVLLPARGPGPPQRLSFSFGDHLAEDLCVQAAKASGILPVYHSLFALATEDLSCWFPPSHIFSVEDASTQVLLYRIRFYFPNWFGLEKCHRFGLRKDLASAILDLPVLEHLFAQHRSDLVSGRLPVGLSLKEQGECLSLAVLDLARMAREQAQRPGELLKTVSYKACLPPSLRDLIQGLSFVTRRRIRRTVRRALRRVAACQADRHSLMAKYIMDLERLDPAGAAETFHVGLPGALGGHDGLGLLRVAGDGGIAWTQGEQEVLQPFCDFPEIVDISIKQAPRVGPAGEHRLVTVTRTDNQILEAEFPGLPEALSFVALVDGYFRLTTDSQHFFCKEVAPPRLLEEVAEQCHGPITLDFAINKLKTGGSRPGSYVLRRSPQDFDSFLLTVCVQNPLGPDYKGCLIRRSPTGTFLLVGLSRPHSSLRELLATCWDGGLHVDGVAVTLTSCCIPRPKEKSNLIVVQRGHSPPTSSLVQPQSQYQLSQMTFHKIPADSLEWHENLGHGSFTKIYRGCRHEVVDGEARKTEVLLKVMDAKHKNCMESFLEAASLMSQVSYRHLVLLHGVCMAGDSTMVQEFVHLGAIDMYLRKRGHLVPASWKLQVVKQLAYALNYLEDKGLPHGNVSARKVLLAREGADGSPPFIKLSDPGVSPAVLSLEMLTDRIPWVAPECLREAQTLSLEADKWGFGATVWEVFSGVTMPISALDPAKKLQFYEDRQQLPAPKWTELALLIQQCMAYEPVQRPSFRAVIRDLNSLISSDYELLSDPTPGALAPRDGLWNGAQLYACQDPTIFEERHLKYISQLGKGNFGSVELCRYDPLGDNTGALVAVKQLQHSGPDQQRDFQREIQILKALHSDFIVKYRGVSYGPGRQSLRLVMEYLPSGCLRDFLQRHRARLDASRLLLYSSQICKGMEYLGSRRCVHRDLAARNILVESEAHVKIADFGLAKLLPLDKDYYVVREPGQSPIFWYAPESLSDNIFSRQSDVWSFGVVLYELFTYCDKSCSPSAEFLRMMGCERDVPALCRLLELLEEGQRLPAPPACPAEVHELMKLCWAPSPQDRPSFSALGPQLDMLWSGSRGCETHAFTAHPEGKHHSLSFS
The assay can be described thus: JAK enzymatic assay (Eurofins KinaseProfiler/IC50Profiler, radiometric), JAK-3. Format: biochemical. The settings on record: human JAK-3 enzyme, 9 concentrations; read-out: JAK3 affinity (IC50) category.

A further assay has as its target JAK-1 (Homo sapiens, UniProt P23458). Kind of assay: JAK enzymatic assay (Eurofins KinaseProfiler/IC50Profiler, radiometric), JAK-1. The following applies: for JAK1/JAK2 selectivity: selectivity IC50 ratio for JAK1 versus JAK2, human enzymes.

JAK-1, sequence (P23458 whole entry): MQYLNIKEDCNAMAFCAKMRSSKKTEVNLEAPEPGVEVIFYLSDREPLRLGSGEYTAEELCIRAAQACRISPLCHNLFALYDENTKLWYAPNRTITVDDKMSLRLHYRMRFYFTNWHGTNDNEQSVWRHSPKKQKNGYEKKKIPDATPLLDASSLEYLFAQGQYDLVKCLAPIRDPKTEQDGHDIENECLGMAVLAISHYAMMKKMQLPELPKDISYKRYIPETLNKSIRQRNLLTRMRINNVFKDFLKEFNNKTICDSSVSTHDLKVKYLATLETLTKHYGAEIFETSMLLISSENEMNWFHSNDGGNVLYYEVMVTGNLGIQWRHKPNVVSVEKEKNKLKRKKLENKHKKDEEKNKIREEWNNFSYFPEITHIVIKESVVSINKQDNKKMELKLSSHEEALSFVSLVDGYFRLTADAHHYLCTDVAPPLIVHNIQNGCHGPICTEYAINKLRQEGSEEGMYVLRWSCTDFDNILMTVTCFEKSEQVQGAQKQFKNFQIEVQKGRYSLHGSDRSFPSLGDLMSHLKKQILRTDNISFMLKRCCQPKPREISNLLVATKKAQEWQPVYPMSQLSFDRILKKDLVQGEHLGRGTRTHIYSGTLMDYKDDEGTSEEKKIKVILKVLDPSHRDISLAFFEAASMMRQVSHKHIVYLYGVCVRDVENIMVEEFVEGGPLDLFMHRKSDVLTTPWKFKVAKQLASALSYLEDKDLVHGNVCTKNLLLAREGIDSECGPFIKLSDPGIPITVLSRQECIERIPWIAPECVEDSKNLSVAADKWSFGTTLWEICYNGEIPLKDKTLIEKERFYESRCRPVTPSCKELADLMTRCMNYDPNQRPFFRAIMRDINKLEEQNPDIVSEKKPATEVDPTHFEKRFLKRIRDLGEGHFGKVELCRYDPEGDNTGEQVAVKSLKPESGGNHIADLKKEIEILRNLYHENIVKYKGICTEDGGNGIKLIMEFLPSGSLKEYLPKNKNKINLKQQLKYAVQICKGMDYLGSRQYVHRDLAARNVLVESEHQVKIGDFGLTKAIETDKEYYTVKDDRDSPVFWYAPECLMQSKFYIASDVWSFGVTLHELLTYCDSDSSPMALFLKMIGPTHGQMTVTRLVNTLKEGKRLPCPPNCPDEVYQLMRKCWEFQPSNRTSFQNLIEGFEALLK
Protocol for Human JAK-2: (§1) All enzyme assays were conducted according to Eurofins Discovery's KinaseProfiler™ and IC50Profiler™ services.
(SEQ ID NO: 2) peptide substrate, 10 mM magnesium acetate and [gamma-33P]-ATP (specific activity and concentration as required). The reaction was initiated by the addition of the Mg/ATP mix. After incubation for 40 minutes at room temperature, the reaction was stopped by the addition of phosphoric acid to a concentration of 0.5%. An aliquot of the reaction was then spotted onto a filter and washed four times for 4 minutes in 0.425% phosphoric acid and once with methanol prior to drying and scintillation counting.
(§2) Data was then imported into an internal application where each data point was expressed as % inhibition based on uninhibited and no enzyme controls.
Protocol for Human JAK-3: as §1
(SEQ ID NO: 3) peptide substrate, 10 mM magnesium acetate and [gamma-33P]-ATP (specific activity and concentration as required). The reaction was initiated by the addition of the Mg/ATP mix. After incubation for 40 minutes at room temperature, the reaction was stopped by the addition of phosphoric acid to a concentration of 0.5%. An aliquot of the reaction was then spotted onto a filter and washed four times for 4 minutes in 0.425% phosphoric acid and once with methanol prior to drying and scintillation counting.
as §2
Protocol for JAK-1: as §1
(SEQ ID NO.: 1) peptide substrate, 10 mM magnesium acetate and [gamma-33P]-ATP (specific activity and concentration as required). The reaction was initiated by the addition of the Mg/ATP mix. After incubation for 40 minutes at room temperature, the reaction was stopped by the addition of phosphoric acid to a concentration of 0.5%. An aliquot of the reaction was then spotted onto a filter and washed four times for 4 minutes in 0.425% phosphoric acid and once with methanol prior to drying and scintillation counting. A known inhibitor, Staurosporine, was used as a positive control for the assay.
Data was then imported into an internal application where each data point was expressed as % inhibition based on uninhibited and no enzyme controls. […] Inhibition values for the JAK enzymes (IC50 values) for each compound were stratified into four groups.

Take `COc1cc(NC(=O)CN2CCN(c3ncnc4[nH]ccc34)CC2)ccc1S(=O)(=O)N(C)C` [Compound 1, 2-(4-(7H-pyrrolo[2,3-d]pyrimidin-4-yl)piperazin-1-yl)-N-(4-(N, N-dimethylsulfamoyl)-3-methoxyphenyl) acetamide]: the IC50 is over 1000 nM on Human JAK-2, over 1000 nM at Human TYK-2, over 1000 nM at Human JAK-3 and 500 to 1000 nM against JAK-1.

As for `CC(C)(C)NS(=O)(=O)c1ccc(NC(=O)CN2CCN(c3ncnc4[nH]ccc34)CC2)cc1` [Compound 2, 2-(4-(7H-pyrrolo[2,3-d]pyrimidin-4-yl)piperazin-1-yl)-N-(4-(N-(tert-butyl)sulfamoyl)phenyl)acetamide], the IC50 was over 1000 nM on Human JAK-2, over 1000 nM on Human TYK-2, over 1000 nM at Human JAK-3 and under 250 nM at JAK-1. The JAK1/JAK2 selectivity on JAK-1 is recorded as 25.

For the compound `O=C(CN1CCN(c2ncnc3[nH]ccc23)CC1)Nc1ccc(S(=O)(=O)N2CCC2)cc1` [Compound 4, 2-(4-(7H-pyrrolo[2,3-d]pyrimidin-4-yl)piperazin-1-yl)-N-(4-(azetidin-1-ylsulfonyl)phenyl) acetamide], the IC50 on Human JAK-2 is over 1000 nM; at Human TYK-2, over 1000 nM; on Human JAK-3, over 1000 nM; against JAK-1, 250 to 500 nM. Besides, the JAK1/JAK2 selectivity on JAK-1 turned out to be 24.

As for `CN(C)S(=O)(=O)c1ccc(NC(=O)CN2CCN(c3ncnc4[nH]ccc34)CC2)cc1F` [Compound 5, 2-(4-(7H-pyrrolo[2,3-d]pyrimidin-4-yl)piperazin-1-yl)-N-(4-(N,N-dimethylsulfamoyl)-3-fluorophenyl)acetamide], the IC50 at Human JAK-2 was over 1000 nM; at Human TYK-2, over 1000 nM; on Human JAK-3, over 1000 nM; against JAK-1, 250 to 500 nM.

On to `CN(C)S(=O)(=O)c1ccc(NC(=O)CN2CCN(c3ncnc4[nH]ccc34)CC2)cc1Cl` [Compound 6, 2-(4-(7H-pyrrolo[2,3-d]pyrimidin-4-yl)piperazin-1-yl)-N-(3-chloro-4-(N,N-dimethylsulfamoyl)phenyl)acetamide], for which the IC50 at Human JAK-2, on Human TYK-2 and on Human JAK-3 was over 1000 nM each time.

As to `O=C(CN1CCN(c2ncnc3[nH]ccc23)CC1)Nc1ccc(S(=O)(=O)NC2CC2)cc1` [Compound 7, 2-(4-(7H-pyrrolo[2,3-d]pyrimidin-4-yl)piperazin-1-yl)-N-(4-(N-cyclopropylsulfamoyl)phenyl)acetamide], the half-inhibitory concentration (IC50) at Human JAK-2 is 500 to 1000 nM; at Human TYK-2, over 1000 nM; at Human JAK-3, over 1000 nM; at JAK-1, under 250 nM. The JAK1/JAK2 selectivity on JAK-1 is 13.

For the compound `CNS(=O)(=O)c1ccc(NC(=O)CN2CCN(c3ncnc4[nH]ccc34)CC2)cc1` [Compound 8, 2-(4-(7H-pyrrolo[2,3-d]pyrimidin-4-yl)piperazin-1-yl)-N-(4-(N-methylsulfamoyl)phenyl)acetamide], the IC50 on Human JAK-2 was 500 to 1000 nM; on Human TYK-2, over 1000 nM; at Human JAK-3, 500 to 1000 nM; against JAK-1 it was under 250 nM. In addition, the JAK1/JAK2 selectivity on JAK-1 came to 7.

As to `CNS(=O)(=O)c1ccc(NC(=O)CN2CCN(c3ncnc4[nH]ccc34)CC2)cc1F` [Compound 9, 2-(4-(7H-pyrrolo[2,3-d]pyrimidin-4-yl)piperazin-1-yl)-N-(3-fluoro-4-(N-methylsulfamoyl)phenyl)acetamide], the half-inhibitory concentration (IC50) on Human JAK-2 was 500 to 1000 nM; on Human TYK-2, 500 to 1000 nM; at Human JAK-3 it was 500 to 1000 nM; against JAK-1, under 250 nM. Moreover, the JAK1/JAK2 selectivity at JAK-1 turned out to be 12.

Consider `COCCN(C)S(=O)(=O)c1ccc(NC(=O)CN2CCN(c3ncnc4[nH]ccc34)CC2)cc1` [Compound 10, 2-(4-(7H-pyrrolo[2,3-d]pyrimidin-4-yl)piperazin-1-yl)-N-(4-(N-(2-methoxyethyl)-N-methylsulfamoyl)phenyl)acetamide], for which the IC50 at Human JAK-2 was over 1000 nM; on Human TYK-2, over 1000 nM; at Human JAK-3, over 1000 nM; against JAK-1, 250 to 500 nM. Also, the JAK1/JAK2 selectivity on JAK-1 amounted to 15.

As to `CC(C)NS(=O)(=O)c1ccc(NC(=O)[C@H](C)N2CCN(c3ncnc4[nH]ccc34)CC2)cc1` [Compound 19, (S)-2-(4-(7H-pyrrolo[2,3-d]pyrimidin-4-yl)piperazin-1-yl)-N-(4-(N-isopropylsulfamoyl)phenyl)propenamide], the half-maximal inhibitory concentration (IC50) was over 1000 nM on Human JAK-2, over 1000 nM at Human JAK-3 and under 250 nM against JAK-1. At JAK-1, the JAK1/JAK2 selectivity was determined as 8.

Turning to `O=C(CN1CCN(c2nc[nH]c3nccc2-3)CC1)Nc1cccc(S(=O)(=O)N2CCCC2)c1` [Compound 32, N-[3-(pyrrolidine-1-sulfonyl)phenyl]-2-(4-{1H-pyrrolo[2,3-d]pyrimidin-4-yl}piperazin-1-yl)acetamide], the IC50 at Human JAK-2 is over 1000 nM. In addition, at JAK-1, the IC50 fell in the range of 250 to 500 nM and the JAK1/JAK2 selectivity is given as 23.

Turning to `O=C(CN1CCN(c2nc[nH]c3nccc2-3)CC1)Nc1ccc(/N=N/c2ccccc2)cc1` [Compound 33, N-[4-(2-phenyldiazen-1-yl)phenyl]-2-(4-{1H-pyrrolo[2,3-d]pyrimidin-4-yl}piperazin-1-yl)acetamide], the IC50 at Human JAK-2 was over 1000 nM. For the same compound, on JAK-1, the IC50 is under 250 nM and the JAK1/JAK2 selectivity was over 100.

`CN(C)S(=O)(=O)c1cc(NC(=O)CN2CCN(c3nc[nH]c4nccc3-4)CC2)ccc1Cl` [Compound 34, N-[4-chloro-3-(dimethylsulfamoyl)phenyl]-2-(4-{1H-pyrrolo[2,3-d]pyrimidin-4-yl}piperazin-1-yl)acetamide]: the figures for the 50% inhibitory concentration (IC50) at Human JAK-2 and against JAK-1 were over 1000 nM and 250 to 500 nM, respectively. Further, the JAK1/JAK2 selectivity on JAK-1 turned out to be 23.

Take `Cc1ccc(NC(=O)CN2CCN(c3nc[nH]c4nccc3-4)CC2)cc1S(=O)(=O)N(C)C` [Compound 35, N-[3-(dimethylsulfamoyl)-4-methylphenyl]-2-(4-{1H-pyrrolo[2,3-d]pyrimidin-4-yl}piperazin-1-yl)acetamide]: the IC50 on Human JAK-2 is over 1000 nM; on JAK-1, 500 to 1000 nM. The JAK1/JAK2 selectivity on JAK-1 is on record as 11.

Turning to `CC(C(=O)Nc1cccc(S(=O)(=O)N(C)C)c1)N1CCN(c2nc[nH]c3nccc2-3)CC1` (stereo not drawn) [Compound 36], the concentration for half-maximal inhibition (IC50) at Human JAK-2 and at JAK-1 was over 1000 nM each time. At JAK-1, the JAK1/JAK2 selectivity is recorded as 9.

In the case of `CC(C)N(C)S(=O)(=O)c1ccc(NC(=O)CN2CCN(c3nc[nH]c4nccc3-4)CC2)cc1` [Compound 37, N-{4-[methyl(propan-2-yl)sulfamoyl]phenyl}-2-(4-{1H-pyrrolo[2,3-d]pyrimidin-4-yl}piperazin-1-yl)acetamide], at Human JAK-2, the IC50 was over 1000 nM. Also, at JAK-1, the IC50 is 250 to 500 nM and the JAK1/JAK2 selectivity was 15.

Take `NS(=O)(=O)c1cccc(NC(=O)CCN2CCN(c3nc[nH]c4nccc3-4)CC2)c1` [Compound 38]: the IC50 on Human JAK-2 is over 1000 nM. At JAK-1, the IC50 lay within 500 to 1000 nM and the JAK1/JAK2 selectivity is given as 6.

`O=C(CCN1CCN(c2nc[nH]c3nccc2-3)CC1)Nc1cccc(S(=O)(=O)N2CCCC2)c1` [Compound 39]: the IC50 at Human JAK-2 is over 1000 nM. In addition, on JAK-1, the IC50 was 500 to 1000 nM and the JAK1/JAK2 selectivity is 1.

Regarding `CN(C)S(=O)(=O)c1ccc(NC(=O)CCN2CCN(c3nc[nH]c4nccc3-4)CC2)cc1` [Compound 40], the IC50 on Human JAK-2 was over 1000 nM; on JAK-1, 250 to 500 nM. Moreover, the JAK1/JAK2 selectivity at JAK-1 was found to be 11.

Take `CN(C)S(=O)(=O)c1ccccc1CNC(=O)CN1CCN(c2nc[nH]c3nccc2-3)CC1` [Compound 41, N-{[2-(dimethylsulfamoyl)phenyl]methyl}-2-(4-{1H-pyrrolo[2,3-d]pyrimidin-4-yl}piperazin-1-yl)acetamide]: the IC50 at Human JAK-2 was over 1000 nM. Besides, on JAK-1, the IC50 was 500 to 1000 nM and the JAK1/JAK2 selectivity was 10.
